Tests used:
[1] = test system: cultured human tubule cells; assay: Cell viability of cultured human tubule cells exposed to SnPP; type: cell-based; details: for % Viable Cells: n = 6, control 100%
Method: The composition of Example 1 and the Comparative Example were exposed to incubated cultured human tubule cells with different concentrations of SnPP.

HO-1 = assay: HO-1/GAPDH mRNA (cortex) after IV FeS + SnPP, biomarker for oxidative stress; type: in vivo; details: combined with iron sucrose; HO-1 as indicator of oxidative stress
Method: The SnPP composition of Example 1 and the Comparative Example (1 micromole) were combined with iron sucrose (1 mg) to assess biomarkers for oxidative stress.

## C=CC1=C(C)C2=Cc3c(C=C)c(C)c4[n]3[Sn]([Cl])([Cl])[n]3c(c(C)c(CCC(=O)O)c3=CC3=NC(=C4)C(C)=C3CCC(=O)O)=CC1=N2 [Example 1, Stannic protoporfin]
[1]; SnPP 10 nmol/mL
  % Viable Cells: 97.9%
[1]; SnPP 25 nmol/mL
  % Viable Cells: 95.3%
[1]; SnPP 75 nmol/mL
  % Viable Cells: 88.9%
[1]; highest concentration of SnPP (75 nmol/mL)
  cell killing: 11%
[1]; human tubule cells
  cell death relative to comparative example: less cell death
HO-1
  HO-1 induction relative to comparative example: lower HO-1 induction
